{"source": "BindingDB's records for doi:10.1021/jm501113m", "about": "(Duquesne University, 2014)", "key": {"[1]": {"test": "Inhibition of FRbeta (unknown origin) expressed in Chinese hamster D4 cells assessed as cell growth inhibition incubated up to 96 hrs by Celltiter-blue cell viability assay"}, "[2]": {"test": "Inhibition of RFC (unknown origin) expressed in Chinese hamster PC43-10 cells assessed as cell growth inhibition incubated up to 96 hrs by Celltiter-blue cell viability assay"}, "[3]": {"test": "Inhibition of FRalpha (unknown origin) expressed in Chinese hamster RT16 cells assessed as cell growth inhibition incubated up to 96 hrs by Celltiter-blue cell viability assay"}, "[4]": {"test": "Inhibition of PCFT (unknown origin) expressed in Chinese hamster R2/PCFT4 cells assessed as cell growth inhibition incubated up to 96 hrs by Celltiter-blue cell viability assay"}, "[5]": {"test": "Inhibition of FRbeta (unknown origin) expressed in Chinese hamster D4 cells assessed as cell growth inhibition incubated up to 96 hrs in presence of 200 nM folic acid by Celltiter-blue cell viability assay"}, "[6]": {"test": "Inhibition of FRalpha (unknown origin) expressed in Chinese hamster RT16 cells assessed as cell growth inhibition incubated up to 96 hrs in presence of 200 nM folic acid by Celltiter-blue cell viability assay"}}}
{"compound": "Nc1nc2[nH]c(CCCc3ccc(C(=O)N[C@@H](CCCC(=O)O)C(=O)O)s3)cc2c(=O)[nH]1", "values": [{"measurement": "IC50", "setting": "[1]", "result": 3.6, "unit": "nM"}, {"measurement": "IC50", "setting": "[2]", "result": "> 1000", "unit": "nM"}, {"measurement": "IC50", "setting": "[3]", "result": 9.5, "unit": "nM"}, {"measurement": "IC50", "setting": "[4]", "result": "> 1000", "unit": "nM"}, {"measurement": "IC50", "setting": "[5]", "result": "> 1000", "unit": "nM"}, {"measurement": "IC50", "setting": "[6]", "result": "> 1000", "unit": "nM"}]}
{"compound": "CCC[C@H](NC(=O)c1ccc(CCCc2cc3c(=O)[nH]c(N)nc3[nH]2)s1)C(=O)O", "values": [{"measurement": "IC50", "setting": "[1]", "result": "> 1000", "unit": "nM"}, {"measurement": "IC50", "setting": "[2]", "result": "> 1000", "unit": "nM"}, {"measurement": "IC50", "setting": "[3]", "result": 56, "unit": "nM"}, {"measurement": "IC50", "setting": "[4]", "result": "> 1000", "unit": "nM"}, {"measurement": "IC50", "setting": "[5]", "result": "> 1000", "unit": "nM"}, {"measurement": "IC50", "setting": "[6]", "result": "> 1000", "unit": "nM"}]}
{"compound": "Nc1nc2[nH]c(CCCc3ccc(C(=O)NCCCC(=O)O)s3)cc2c(=O)[nH]1", "values": [{"measurement": "IC50", "setting": "[1]", "result": "> 1000", "unit": "nM"}, {"measurement": "IC50", "setting": "[2]", "result": "> 1000", "unit": "nM"}, {"measurement": "IC50", "setting": "[3]", "result": 27, "unit": "nM"}, {"measurement": "IC50", "setting": "[4]", "result": "> 1000", "unit": "nM"}, {"measurement": "IC50", "setting": "[5]", "result": "> 1000", "unit": "nM"}, {"measurement": "IC50", "setting": "[6]", "result": "> 1000", "unit": "nM"}]}
{"compound": "Nc1nc2[nH]c(CCCc3ccc(C(=O)N[C@@H](CC(=O)O)C(=O)O)s3)cc2c(=O)[nH]1", "values": [{"measurement": "IC50", "setting": "[1]", "result": 347, "unit": "nM"}, {"measurement": "IC50", "setting": "[2]", "result": "> 1000", "unit": "nM"}, {"measurement": "IC50", "setting": "[3]", "result": 6.6, "unit": "nM"}, {"measurement": "IC50", "setting": "[4]", "result": "> 1000", "unit": "nM"}, {"measurement": "IC50", "setting": "[5]", "result": "> 1000", "unit": "nM"}, {"measurement": "IC50", "setting": "[6]", "result": "> 1000", "unit": "nM"}]}
{"compound": "Nc1nc2[nH]c(CCCc3ccc(C(=O)O)s3)cc2c(=O)[nH]1", "values": [{"measurement": "IC50", "setting": "[1]", "result": "> 1000", "unit": "nM"}, {"measurement": "IC50", "setting": "[2]", "result": "> 1000", "unit": "nM"}, {"measurement": "IC50", "setting": "[3]", "result": 661, "unit": "nM"}, {"measurement": "IC50", "setting": "[4]", "result": "> 1000", "unit": "nM"}, {"measurement": "IC50", "setting": "[5]", "result": "> 1000", "unit": "nM"}, {"measurement": "IC50", "setting": "[6]", "result": "> 1000", "unit": "nM"}]}
